Laboratory results: PubChem BioAssay AID1959 (Broad Institute, 2009)
Calls of active or inactive are those of the source.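 Rule for the calls: active = growth-inhibition EC50 no more than tenfold above the top tested dose; inconclusive = flat fit between 30% and 70% inhibition, or unreliable fit; inactive = EC50 more than tenfold above the top tested dose.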

Test system: E. coli NEB5alpha growth, BacTiter-Glo luminescence, 4 h
Assay: antibacterial activity against E. coli NEB5alpha – luminescence, counter-screen for MEX-5/POS-1 RNA-binding inhibitor project, dose response (AID 1959);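 note: pUC19-transformed ampicillin-resistant cells grown in LB with ampicillin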

Row | SMILES | EC50
1 | Cc1cccn2c(=O)c3cc(S(=O)(=O)c4ccccc4)c(=N)n(CC4CCCO4)c3nc12 (stereo not drawn) | > 11 µM (inactive)
2 | COC(=O)c1ccc(-n2c(C)ccc2-c2ccccc2)cc1 | > 11 µM (inactive)
3 | Cc1ccc(C2C(C(=O)c3ccco3)=C(O)C(=O)N2c2nnc(C)s2)cc1 (stereo not drawn) | > 11 µM (inactive)
4 | C=CCN1C(=O)NC(=O)/C(=C/C=C/c2ccccc2)C1=O | > 11 µM (inactive)
5 | CC(C)c1ccc(/C=C(\NC(=O)c2ccccc2)C(=O)NCCN2CCOCC2)cc1 | > 11 µM (inactive)
6 | FC(F)(F)c1ccc2c(c1)C1C=CCC1C(c1ccncc1)N2 (stereo not drawn) | > 11 µM (inactive)
7 | CC1(OC(=O)CCc2ccccc2)C(=O)C=C2C=C(C3CC3)OC=C2C1=O (stereo not drawn) | > 11 µM (inactive)
8 | O=C(CNC(=O)/C=C/c1ccco1)N=Nc1c(O)[nH]c2ccccc12 | > 11 µM (inactive)
9 | COc1cccc(N2C(=O)/C(=C/c3ccc(C)o3)C(=O)NC2=S)c1 | > 11 µM (inactive)
10 | CCN1/C(=C2/SC(=S)N(NC(C)=O)C2=O)Sc2ccccc21 | > 11 µM (inactive)
11 | Oc1c(Br)cc(Br)c(/C=N/n2c(-c3ccccc3)n[nH]c2=S)c1Br | > 11 µM (inactive)
12 | Cc1ccc(/C=C/C(=O)O)cc1S(=O)(=O)N1CCCCC1 | > 11 µM (inactive)
13 | CCC(=NCCCN(C)C)c1c(O)n(-c2ccc(OC)cc2)c(=O)[nH]c1=O | > 11 µM (inactive)
14 | COC(=O)c1ccc(C23CC4(C2)[C@H](CN(Cc2ccc(C(F)(F)F)cc2)[C@@H]4c2ccccc2)C3c2ccccc2)cc1 (stereo partly drawn) | > 11 µM (inactive)
15 | Cc1cccc(-n2c(C)cc(C=C3C(=O)c4ccccc4C3=O)c2C)c1 | > 11 µM (inactive)
16 | Cc1cc(C=C2C(=O)c3ccccc3C2=O)c(C)n1-c1ccc(C(=O)O)cc1 | > 11 µM (inactive)
17 | CCO/C(C)=N/n1c2nc3ccccc3nc2c2c(=O)n(C3CCCC3)c(C)nc21 | > 11 µM (inactive)
18 | CN1CCc2cc(O)cc3c2[C@H]1Cc1ccc(O)c(O)c1-3 | > 11 µM (inactive)
19 | Cn1cc(C2=C(c3ccc(Cl)cc3Cl)C(=O)NC2=O)c2ccccc21 | > 11 µM (inactive)
20 | Cc1cc([N+](=O)[O-])ccc1-c1ccc(/C=N/NC(=O)c2ccc(Br)o2)o1 | > 11 µM (inactive)
21 | CC(=O)n1c(C=Nc2ccccc2)c(O)c2ccccc21 | > 11 µM (inactive)
22 | Cc1nnc(N2C(=O)C(O)=C(C(=O)c3ccco3)C2c2ccc(F)cc2)s1 (stereo not drawn) | > 11 µM (inactive)
23 | O=C(NNC(=O)c1ccccc1O)c1cccc(Br)c1 | > 11 µM (inactive)
24 | C=CCc1cccc(/C=N/n2cnnc2)c1O | > 11 µM (inactive)

Row | SMILES | EC50
25 | CCOc1ccccc1N1CCN(C(=O)CNC(=O)c2ccccc2F)CC1 | > 11 µM (inactive)
26 | C[C@H]1c2cccc(O)c2C(O)=C2C(=O)[C@]3(O)C(O)=C(C(N)=O)C(=O)[C@@H](N(C)C)[C@@H]3[C@@H](O)[C@@H]21 | 4.67 µM
27 | CCN(CC)C(=O)Cn1cc(C(=O)C(=O)N2CCc3ccccc32)c2ccccc21 | > 11 µM (inactive)
28 | CCN1CCN(Cc2c(C(=O)N/N=C(\C)c3ccc(Cl)cc3)nnn2-c2nonc2N)CC1 | > 11 µM (inactive)
29 | C/C(O)=c1/ccc2cccc3nc(C)nc1c23 | > 11 µM (inactive)
30 | CCCCCCn1c(O)c(C=NCCCn2ccnc2)c(=O)[nH]c1=O | > 11 µM (inactive)
31 | CCOc1ccc(-c2nn(-c3ccccc3)cc2/C=C2\SC(=S)N(C3CCS(=O)(=O)C3)C2=O)cc1 (stereo not drawn) | > 11 µM (inactive)
32 | N=c1c(C(=O)NCc2ccc(F)cc2)cc2c(=O)n3ccccc3nc2n1Cc1cccnc1 | > 11 µM (inactive)
33 | CCOC(=O)C1Nc2ccc(OC(F)(F)F)cc2C2C=CCC12 (stereo not drawn) | > 11 µM (inactive)
34 | O=C(O)c1ccc2c(c1)C1C=CCC1C(c1ccncc1)N2 (stereo not drawn) | > 11 µM (inactive)
35 | CC(C)OC(=O)c1nn2c(C(F)(F)F)cc(-c3ccc(Br)o3)nc2c1Br | > 11 µM (inactive)
36 | Cc1cc(C)c(S(=O)(=O)Nc2cc(SCC(=O)O)c(O)c3ccccc23)cc1C | > 11 µM (inactive)
37 | Cc1ccc(N/C=C2/Sc3ccccc3NC2=O)cc1 | > 11 µM (inactive)
38 | COc1ccc(C2=CC3=C(Br)C(=O)C(C)(OC(=O)c4ccco4)C(=O)C3=CO2)cc1 (stereo not drawn) | > 11 µM (inactive)
39 | O=C1N=c2ccc([N+](=O)[O-])cc2=C1c1sc(=O)[nH]c1O | > 11 µM (inactive)
40 | COc1ccc(CCn2c(O)c(/C=N/NC(=O)c3ccncc3)c(=O)[nH]c2=O)cc1OC | > 11 µM (inactive)
41 | COC(=O)CCC(=O)OC1(C)C(=O)C=C2C=C(c3ccsc3)OC=C2C1=O (stereo not drawn) | > 11 µM (inactive)
42 | O=C1C2CC=C(Cl)CC2C(=O)N1CC1Cc2ccccc2CO1 (stereo not drawn) | > 11 µM (inactive)
43 | O=C(O)c1ccccc1-n1cccc1C(=O)O | > 11 µM (inactive)
44 | N=c1c(S(=O)(=O)c2ccccc2)cc2c(=O)n3ccccc3nc2n1Cc1cccnc1 | > 11 µM (inactive)
45 | CCN(CC)CCCNC(=O)CCC(=O)NNc1nc2ccccc2c2nc(C)nn12 | > 11 µM (inactive)
46 | CCOC(=O)c1c(-n2c(C)cc(C=C3C(=O)NC(=O)NC3=O)c2C)sc2c1CCCC2 | > 11 µM (inactive)
47 | CC1(C)Cc2c(cnn2-c2cccc(F)c2)C(NC(=O)CSc2ccccn2)C1 (stereo not drawn) | > 11 µM (inactive)
48 | CCn1c(=N)c(S(=O)(=O)c2ccc(F)cc2)cc2c(=O)n3ccccc3nc21 | > 11 µM (inactive)

Row | SMILES | EC50
49 | O=C(/C=C/N1CCOCC1)c1ccc(-c2ccccc2)cc1 | > 11 µM (inactive)
50 | C=CCN1C(=O)/C(=C2/Sc3ccccc3N2CC)SC1=S | > 11 µM (inactive)
51 | CC(C)(C)c1ccc(/C=C2\Oc3cc(O)ccc3C2=O)cc1 | > 11 µM (inactive)
52 | COC(=O)[C@@]1(C#N)[C@@H]2C=CC(C(C)=O)=CN2[C@@H](C(N)=O)[C@@H]1c1ccc(F)cc1 | > 11 µM (inactive)
53 | Cc1cc2nc3ccc(N(C)C)cc3nc2cc1N | > 11 µM (inactive)
54 | CCN(CC)c1ccc(/C=C2\C(=O)NC(=S)N(c3ccc(OC)cc3OC)C2=O)o1 | > 11 µM (inactive)
55 | O=C1c2ccccc2S(=O)(=O)c2cc(N3CCC(C(=O)N4CCCCC4)CC3)ccc21 | > 11 µM (inactive)
56 | CC(=NCCN1CCCCC1)c1c(O)n(-c2ccc(Cl)cc2)c(=O)[nH]c1=O | > 11 µM (inactive)
57 | Cc1ccc(-c2cc(-c3ccco3)c(C#N)c(=O)[nH]2)cc1 | > 11 µM (inactive)
58 | COc1ccc(N=Cc2cc3c(cc2O)OC(N)=C(C#N)C3c2ccccc2)cc1 (stereo not drawn) | > 11 µM (inactive)
59 | COC(=O)Cn1cc(/C=C2\C(=O)NC(=O)N(c3ccccc3)C2=O)c2ccccc21 | > 11 µM (inactive)
60 | O=C(C1=C(O)C(=O)N(c2ncccn2)C1c1cccs1)c1ccco1 (stereo not drawn) | > 11 µM (inactive)
61 | Cc1ccc(C(=O)C2=C(O)C(=O)N(Cc3ccco3)C2c2ccc(N(C)C)cc2)o1 (stereo not drawn) | > 11 µM (inactive)
62 | CCOc1cc(/C=C(\C#N)c2nc3ccccc3[nH]2)ccc1OC(C)C(=O)O (stereo not drawn) | > 11 µM (inactive)
63 | Cc1ccc(CS(=O)Cc2ccc(C(=O)N3CCN(c4ccccc4)CC3)o2)cc1 (stereo not drawn) | > 11 µM (inactive)
64 | O=C(O)c1cc(Cl)c2c(c1)[C@@H]1C=CC[C@@H]1[C@H](c1ccc(S(=O)(=O)N3CCOCC3)cc1)N2 | > 11 µM (inactive)
65 | Cc1ccc2nc3sc(C(=O)N4CCOCC4)c(N)c3cc2c1 | > 11 µM (inactive)
66 | CCOc1cccc(N2C(=O)/C(=C/c3ccco3)C(=O)NC2=S)c1 | > 11 µM (inactive)
67 | COC(=O)c1ccccc1NCc1cc(=O)oc2cc(O)c(O)cc12 | > 11 µM (inactive)
68 | CCc1ccc(/C=C2\SC(=S)N(CCCC(=O)Nc3ccccn3)C2=O)cc1 | > 11 µM (inactive)
69 | O=CN/N=C/c1c(O)ccc2ccccc12 | > 11 µM (inactive)
70 | C/C(=N/N=C(\C)c1ccccc1O)c1ccccc1O | > 11 µM (inactive)
71 | Nc1cc(S(=O)(=O)O)cc([N+](=O)[O-])c1O | > 11 µM (inactive)
72 | COC(=O)Cn1cc(/C=C2\C(=O)NC(=O)N(c3ccc(OC)cc3)C2=O)c2ccccc21 | > 11 µM (inactive)

Row | SMILES | EC50
73 | CN(C)CCCN1C(=O)c2cccc3c(Br)ccc(c23)C1=O | > 11 µM (inactive)
74 | NC(=O)C1(N2CCCCC2)CCN(Cc2nc(-c3cccs3)no2)CC1 | > 11 µM (inactive)
75 | N=c1c(C(=O)NCC2CCCO2)cc2c(=O)n3ccccc3nc2n1Cc1cccnc1 (stereo not drawn) | > 11 µM (inactive)
76 | O=C(O)C1Nc2ccc(Br)cc2C2C=CCC12 (stereo not drawn) | > 11 µM (inactive)
77 | CCOC(=O)c1ccc(-n2c(CCC(=O)O)ccc2-c2ccccc2)cc1 | > 11 µM (inactive)
78 | CCOc1ccc(N2C(=O)/C(=C/c3ccco3)C(=O)NC2=S)cc1 | > 11 µM (inactive)
79 | Cc1cc(/C=C(\C#N)C(=O)Nc2ccccc2)c(C)n1-c1ccc(C(=O)O)cc1 | > 11 µM (inactive)
80 | COc1cc(C2C(C#N)=C(N)OC3=C2C(=O)CC(C)(C)C3)ccc1OCCN1CCOCC1 (stereo not drawn) | > 11 µM (inactive)
81 | CCOC(=O)C(C(=O)OCC)c1cc(Br)c2noc3c2c1C(=O)c1ccccc1-3 | > 11 µM (inactive)
82 | N#CC1=C(N)C2=C(N3CCCCC3)CCCC2C1(C#N)C#N (stereo not drawn) | > 11 µM (inactive)
83 | Cc1ccccc1NC(=O)CN1C(=O)S/C(=C\c2ccc(-c3cc(C(=O)O)ccc3C)o2)C1=O | > 11 µM (inactive)
84 | CCN(CC)C(=O)Cn1cc(/C=C2\C(=O)NC(=O)N(c3ccccc3F)C2=O)c2ccccc21 | > 11 µM (inactive)
85 | CC(C)Cc1nnc(NC(=O)CCC(=O)N2CC(C)CC(C)C2)s1 (stereo not drawn) | > 11 µM (inactive)
86 | O=C1c2ccccc2C(=O)c2[nH]cnc21 | > 11 µM (inactive)
87 | Cc1ccc(/C=N/NC(=O)c2nnn(-c3nonc3N)c2-c2cccs2)cc1 | > 11 µM (inactive)
88 | CC(=O)N=c1c(C#N)cc2c(=O)n3cccc(C)c3nc2n1CCCOC(C)C | > 11 µM (inactive)
89 | CNCc1ccccc1Sc1ccc(O)c(O)c1 | > 11 µM (inactive)
90 | Cc1cc(C)cc(-n2c(O)c(C=Nc3ccc(N4CCOCC4)cc3)c(=O)[nH]c2=S)c1 | > 11 µM (inactive)
91 | COC(=O)c1ccccc1-n1c(CCC(=O)O)ccc1-c1ccc(F)cc1 | > 11 µM (inactive)
92 | Cn1ncc2c(NNC(=O)Cc3ccccc3)ncnc21 | > 11 µM (inactive)
93 | O=C1N=C(N2CCCCC2)S/C1=C/C1=Cc2ccccc2OC1 | > 11 µM (inactive)
